Experimental data from patent US7407934B2, “Methods for regulating postprandial blood glucose” (Amylin Pharmaceuticals, Inc., priority 1993, dated 2008).
Positions of bridges follow the written chain, without caps; N, C: chain ends. Residues, ends and D or L forms follow the SMILES beside them.

Columns and labels:
[1] = tested on: insulin-stimulated glycogen synthesis in soleus muscle; experiment: Soleus muscle assay (inhibition of insulin-stimulated glycogen synthesis); assay type: cell-based, rat
Experimental: Concentrations of peptide dissolved in carrier-free buffers are determined by quantitative amino acid analysis, as described therein. The ability of compounds to act as agonists in this assay is determined by measuring EC50 values. […] Similar results were obtained with other agonist compounds listed above.

[2] = tested on: glucose absorption from the small intestine; experiment: Glucose absorption from duodenum / perfused small bowel in anesthetized rats; assay type: in vivo, rat
Excerpt: Because the studies involved anesthetized rather than conscious rats, they are not considered in analyzing gastric motility, e.g., rate of emptying of stomach contents into the duodenum. However, the studies indicate that absorption of glucose from the duodenum into the blood was not delayed by amylin. […] In anesthetized rats, a segment of small bowel, still connected to the animal via its blood supply, was exteriorized and cannulae inserted so that the small bowel could be perfused with glucosed solutions of controlled composition. The animals were cannulated also via an artery (for blood sampling) and via a vein (for infusion or amylin, insulin and glucose). The lumen was perfused with a tritium-labelled glucose solution. The passage of glucose from the lumen of the gut into the rat was measured by the appearance of the tritium label in the plasma. The supposition that such appearance of tritium in the plasma was indeed measuring glucose uptake from the gut was tested by administration of the glucose transport blocker, phloridzin. […] To ensure that the glucose gradient between the gut lumen and plasma remained constant, during amylin infusions, plasma glucose was “clamped” by an infusion of glucose that was varied in response to changes in plasma glucose.

[3] = cited from earlier work
[4] = tested on: gastric emptying; experiment: Gastric emptying of Phenol Red methylcellulose gel after gavage (Example 5); assay type: in vivo, rat; details: for ED50 for suppression of gastric emptying: diabetic BB rats fasted 6 hours; for ED50 for change in gastric emptying: normal HSD rats fasted 20 hours
Experimental: When BB rats were confirmed as being diabetic by glycosuria on at least 2 days, they were treated with daily s.c. injections of ultralente recombinant human insulin (Humulin-U, Eli Lilly, Indianapolis). Insulin therapy was aimed at maintaining glucose but minimizing ketones in the urine, in order to avoid hypoglycemic deaths. In fact, glycosuria was present in 88% of measurements and ketonuria in 52%. The average duration of diabetes was 53±5 days, and daily insulin requirements were 4.7±0.3 units. All animals were housed at […] in a 12:12 hour light:dark cycle (experiments being performed during the light cycle) and were fed and watered ad libitum (Diet LM-485, Teklad, Madison, Wis.).
The determination of gastric emptying by the method described below has usually been performed after a fast of ˜20 hours to ensure that the stomach contained no chyme that would interfere with spectrophotomertric absorbance measurements. However, diabetic rats treated with Ultralente insulin could not be fasted for 20 hours. […] Such animals were therefore fasted for only 6 hours before measurement of gastric emptying. Non-diabetic rates were deprived of food for either 6 or 20 hours prior to experimentation. We have note that even non-diabetic BB rats have elevated glycated hemoglobin concentrations, possibly indicating subclinical insulitis. Both non-diabetic Harlan Sprague Dawley rats and non-diabetic BB rats animals were therefor use in comparisons with diabetic rats. Thus there were 5 treatment groups:
Twenty minutes after gavage, rats were anesthetized using 5% halothane, the stomach exposed and clamped at the pyloric and lower esophageal spincters using artery forceps, removed and opened into an alkaline solution which was made up to a fixed volume. Stomach content was derived from the intensity of the phenol red in the alkaline solution, measured by absorbance at a wavelength of 560 nm. In most experiments, the stomach was clear. In other experiments, particulate gastric contents were centrifuged to clear the solution for absorbance measurements. Where the diluted gastric contents remained turbid, the spectroscopic absorbance due to Phenol Red was derived as the difference between that present in alkaline vs acidified diluent. In separate experiments on 7 rats, the stomach and small intestine were both excised and opened into an alkaline solution. The quantity of phenol red that could be recovered from the upper gastrointestinal tract within 20 minutes of gavage was 89±4%. To account for a maximal dye recovery of less than 100%, stomach contents remaining after 20 min were expressed as a fraction of the gastric contents recovered from control rats sacrificed immediately after gavage in the same experiment.
Pairwise comparisons were performed using one-way analysis of variance and the Student-Newman-Keuls multiple comparisons test (Instat v2.0, GraphPad Software, San Diego) using P<0.05 as the level of significance.

[5] = tested on: plasma renin activity; details: intact rats, given subcutaneously
Excerpt: This is important because lowered blood pressure is a strong stimulus to renin release.

[6] = rats, rabbits, humans with Paget's disease; cited from earlier work
[7] = Oral glucose tolerance test in dogs during amylin infusion (Example 1); assay type: in vivo, dog
Experimental: Mongrel dogs (9 males, 12-17 kg wt. range) were used for this study. All animals were fasted overnight prior to each study. Each animal served as its own control for all protocols. Animals were equilibrated for 30-60 minutes prior to the start of each protocol.
25% glucose (1 gm/kg) was administered by mouth at t=0 minutes. […] Samples for insulin, glucose and lactate were obtained at 15 minutes intervals from t=−45 to t=180 minutes.

[8] = Plasma amylin concentration after subcutaneous rat amylin (immuno-enzymometric assay); assay type: in vivo; details: sc, 1 μg, Peak plasma amylin concentration, 1 μg s.c., 20 min
Experimental: The plasma from 250 μL samples collected at 10 min intervals was separated and frozen at −20° C. for analysis by a 2-site immuno-enzymometric assay developed in-house.
To perform the immunoassay, black microtiter plates (Dynatech, Chantilly, Va.) were coated with the antibody F024-4.4 [Phelps JL, Blase E, Koda JE, unpublished] by overnight incubation at 4° C. with 20 μg antibody per mL in 50 mM carbonate at pH 9.6. Plates were washed with 0.05 M Tris/0.15 M sodium chloride/0.02% sodium azide/0.1% Tween 20 (TBS/Tween), and blocked with 1.0% nonfat dry milk powder in the same carbonate buffer for one hour at room temperature. Samples were thawed on ice, and diluted in 4% BSA/200 mg/dl bovine cholesterol supertrate (Miles Pentex reagents, Miles Laboratories, Kankakee, Ill.) if necessary. Samples or standards were added to the coated and blocked plates and incubated for one hours at room temperature. After washing, the F025-27 detection antibody conjugated to alkaline phosphatase was added. […] Bound enzyme was detected by incubation of the plates with the fluorescent substrate 4-methylumbelliferyl phosphate at 50 ug/ml in 1M diethanolamine/0.5 mM MgCl, pH 9.8 for 40 minutes at room temperature. The fluorescent signal was measured with a Dynatech Microfluor plate reader, and data analyzed on Multicalc software (Wallac, Gaithersburg, Md.). […]

SMILES	EC50 [1] [nM]	Absorption of glucose from the duodenum into the blood ([2]; amylin infusion 0.35 nm/kg/min, glucose 1 g/kg)	Rate of transit of labelled glucose from small bowel lumen into plasma ([2]; perfused exteriorized small bowel segment)	Plasma glucose after injection ([3]; prolonged increase from about 6) [mM]	Plasma lactate after injection ([3]; rise from about 0.5, i.v. and s.c.) [mM]	ED50 of inhibition of gastric emptying ([4]; both normal and diabetic rats (summary)) [µg]	ED50 for suppression of gastric emptying ([4]; s.c.) [nmol/gk]	ED50 for suppression of gastric emptying ([4]; s.c., ±0.18 log units) [µg]	Dye recoverable from stomach 20 min after gavage ([4]; diabetic rats, 10 μg s.c. (P=0.14))	Dose restoring gastric emptying in a diabetic rat to the rate of normal rats not administered amylin ([4]; estimated from fitted curves of FIG. 14) [µg]	Plasma concentrations 50% effective in inhibiting gastric emptying ([4]; inferred from plasma profile after 1 μg s.c.)	ED50 for change in gastric emptying ([4]; s.c.)	ED50 for change in gastric emptying ([4]; s.c. 5 min before gavage, ±0.19 log units) [µg]	Dye recoverable from stomach 20 min after gavage ([4]; normal HSD rats, 1 μg s.c. (P=0.22))	Effect on gastric emptying (in words) ([4]; s.c. 5 min before gavage, 0.01-100 μg)	Plasma renin activity [5]	Lowering of plasma calcium [6]	Plasma glucose after oral glucose load ([7]; amylin infusion 50, 100 and 300 pmol/kg/min, glucose 1 gm/kg by mouth)	Effects on plasma lactate ([7]; oral glucose load)	Cmax [8] [nM]
CC[C@H](C)[C@H](NC(=O)[C@H](C)NC(=O)CNC(=O)[C@H](Cc1ccccc1)NC(=O)[C@H](CC(N)=O)NC(=O)[C@H](CC(N)=O)NC(=O)[C@H](CO)NC(=O)[C@H](CO)NC(=O)[C@H](Cc1c[nH]cn1)NC(=O)[C@@H](NC(=O)[C@H](CC(C)C)NC(=O)[C@H](Cc1ccccc1)NC(=O)[C@H](CC(N)=O)NC(=O)[C@H](C)NC(=O)[C@H](CC(C)C)NC(=O)[C@H](CCCNC(=N)N)NC(=O)[C@H](CCC(N)=O)NC(=O)[C@@H](NC(=O)[C@H](C)NC(=O)[C@@H]1CCCCNC(=O)C[C@H](NC(=O)[C@@H](N)CCCCN)C(=O)N[C@@H](CC(N)=O)C(=O)N[C@@H]([C@@H](C)O)C(=O)N[C@@H](C)C(=O)N[C@@H]([C@@H](C)O)C(=O)N1)[C@@H](C)O)C(C)C)C(=O)N[C@@H](CC(C)C)C(=O)N[C@@H](CO)C(=O)N[C@@H](CO)C(=O)N[C@H](C(=O)N[C@@H](CC(N)=O)C(=O)N[C@H](C(=O)NCC(=O)N[C@@H](CO)C(=O)N[C@@H](CC(N)=O)C(=O)N[C@H](C(=O)N[C@@H](Cc1ccc(O)cc1)C(N)=O)[C@@H](C)O)C(C)C)[C@@H](C)O [^2,7Cyclo-[^2Asp, ^7Lys]-h-Amylin, ^2,7Cyclo-[^2Asp,^7Lys]-h-Amylin] (H-KDNTATKATQRLANFLVHSSNNFGAILSSTNVGSNTY-NH2; lactam 2-7; N-terminus and C-terminus assumed)	6.62	–	–	–	–	–	–	–	–	–	–	–	–	–	–	–	–	–	–	–
CC(C)C[C@H](NC(=O)[C@H](CC(N)=O)NC(=O)[C@H](CC(N)=O)NC(=O)[C@H](CO)NC(=O)[C@H](CO)NC(=O)[C@H](CCCNC(=N)N)NC(=O)[C@@H](NC(=O)[C@H](CC(C)C)NC(=O)[C@H](Cc1ccccc1)NC(=O)[C@H](CC(N)=O)NC(=O)[C@H](C)NC(=O)[C@H](CC(C)C)NC(=O)[C@H](CCCNC(=N)N)NC(=O)[C@H](CCC(N)=O)NC(=O)[C@@H](NC(=O)[C@H](C)NC(=O)[C@@H]1CSSC[C@H](NC(=O)[C@@H](N)CCCCN)C(=O)N[C@@H](CC(N)=O)C(=O)N[C@@H]([C@@H](C)O)C(=O)N[C@@H](C)C(=O)N[C@@H]([C@@H](C)O)C(=O)N1)[C@@H](C)O)C(C)C)C(=O)NCC(=O)N1CCC[C@H]1C(=O)N[C@H](C(=O)N[C@@H](CC(C)C)C(=O)N1CCC[C@H]1C(=O)N1CCC[C@H]1C(=O)N[C@H](C(=O)N[C@@H](CC(N)=O)C(=O)N[C@H](C(=O)NCC(=O)N[C@@H](CO)C(=O)N[C@@H](CC(N)=O)C(=O)N[C@H](C(=O)N[C@@H](Cc1ccc(O)cc1)C(N)=O)[C@@H](C)O)C(C)C)[C@@H](C)O)C(C)C [amylin]	–	not delayed	no effect	~11	~1.5	~1	2.3	2.2	the same as that recoverable immediately after gavage	~2	less than 74 pM	0.60 nmole amylin/kg body weight	0.43	the same as that recoverable immediately after gavage	dose dependent suppression of gastric emptying	markedly increases	up to 20%	reduced both the rate of rise in plasma glucose as well as the peak plasma glucose	unremarkable	0.076
